Data set [1] addresses α-glucosidase. Nature of the data set: α-glucosidase inhibitory activity assay. It is filed as biochemical. To be noted: in vitro; mean ± s, n=3. How it is done: All compounds were evaluated in vitro for α-glucosidase inhibitory activities.
An assay of α-glucosidase inhibitory activity was performed as previously described.

Data set [2] concerns HepG-2 tumor cell line. Nature of the data set: SRB cytotoxicity assay, HepG-2. The class given is cell-based, human. To be noted: SRB method, mean ± s, n=3. How it is done:
(§1) The in vitro cytotoxicities of compounds 1–11 were evaluated against the SF-268, MCF-7, NCI-H460, and HepG-2 tumor cell lines by the Sulforhodamine B (SRB) method.
(§2) Cytotoxicities of compounds (1–11) were assayed against four tumor cell lines SF-268, MCF-7, NCI-H460, and HepG-2. Assays were performed by the SRB method.
(Sulforhodamine B stains cellular protein and so reports cell mass.)

The test system of data set [3] is MCF-7 tumor cell line. As to the kind of experiment: SRB cytotoxicity assay, MCF-7. The class given is cell-based, human. To be noted: SRB method, mean ± s, n=3. How it is done: as §1, §2
In data set [4] the test system is NCI-H460 tumor cell line. As to the kind of experiment: SRB cytotoxicity assay, NCI-H460. The class given is cell-based, human. To be noted: SRB method, mean ± s, n=3. How it is done: as §1, §2
In data set [5] the test system is SF-268, MCF-7, NCI-H460, and HepG-2 tumor cell lines. As to the kind of experiment: SRB cytotoxicity, four tumor cell lines taken together. To be noted: for cytotoxic / inhibitory activity against the four tumor cell lines (in words): SF-268, MCF-7, NCI-H460, HepG-2, SRB method; for IC50: Homo sapiens, range over SF-268, MCF-7, NCI-H460, HepG-2, read-out: IC50 values against the four tumor cell lines. It is filed as cell-based, human. On the procedure:
as §1, §2

For data set [6], the system named is SF-268 tumor cell line. As to the kind of experiment: SRB cytotoxicity assay, SF-268. It is filed as cell-based, human. To be noted: SRB method, mean ± s, n=3. How it is done: as §1, §2

Bounds are passed on as bounds.

One may read the IC50 as the concentration that inhibits the measured activity by half.

Regarding `CSC1(CO)C(=O)n2c(cc3ccccc32)C(=O)N1C` (stereo not shown) [Compound 1, dichotocejpin A], the IC50 in data set [1] was 138 ± 6.7 µM; in data set [2] (Homo sapiens, HepG2), 28.9 ± 3 µM; in data set [3] (Homo sapiens, MCF7) it was 29.5 ± 2.3 µM; in data set [4] (Homo sapiens, NCI-H460) it was over 100 µM; in data set [6] (Homo sapiens, SF-268), 35.7 ± 2.1 µM. Besides, the “cytotoxic / inhibitory activity against the four tumor cell lines (in words)” value (from here on “cytotoxic / inhibitory activity”) in data set [5] was “inactive or weak”.
Turning to `C=C1C(=O)N2C3C(=CC=CC3OC(C)=O)CC2(O)C(=O)N1C` (stereo not shown) [Compound 2, dichotocejpin B], the IC50 is over 500 µM in data set [1]; over 100 µM in data set [2] (Homo sapiens, HepG2); over 100 µM in data set [3] (Homo sapiens, MCF7); over 100 µM in data set [4] (Homo sapiens, NCI-H460); over 100 µM in data set [6] (Homo sapiens, SF-268). Besides, the “cytotoxic / inhibitory activity” value in data set [5] was “inactive or weak”.
For the compound `CN1C(=O)[C@]2(O)Cc3ccccc3N2C(=O)[C@H]1CO` [Compound 3, dichotocejpin C], the IC50 in data set [1] is over 500 µM; in data set [2] (Homo sapiens, HepG2), over 100 µM; in data set [3] (Homo sapiens, MCF7) it was over 100 µM; in data set [4] (Homo sapiens, NCI-H460), over 100 µM; in data set [6] (Homo sapiens, SF-268), over 100 µM. Moreover, the “cytotoxic / inhibitory activity” value in data set [5] was “inactive or weak”.
Turning to `CN1C(=O)[C@]23Cc4ccccc4N2C(=O)[C@@]1(CO)SS3` [Compound 4, 6-deoxy-5a,6-didehydrogliotoxin], the IC50 was over 500 µM in data set [1]; 1.52 ± 0.03 µM in data set [2] (Homo sapiens, HepG2); 0.68 ± 0.02 µM in data set [3] (Homo sapiens, MCF7); 1.27 ± 0.04 µM in data set [4] (Homo sapiens, NCI-H460); 0.08 to 1.52 µM in data set [5]; 1.35 ± 0.05 µM in data set [6] (Homo sapiens, SF-268).
Take `CN1C(=O)[C@]23CC4=CC=C[C@H](O)[C@H]4N2C(=O)[C@@]1(CO)SS3` [Compound 5, gliotoxin]: the IC50 is over 500 µM in data set [1]; 0.21 ± 0.01 µM in data set [2] (Homo sapiens, HepG2); 0.08 µM in data set [3] (Homo sapiens, MCF7); 0.24 ± 0.01 µM in data set [4] (Homo sapiens, NCI-H460); 0.08 to 1.52 µM in data set [5]; 0.24 ± 0.1 µM in data set [6] (Homo sapiens, SF-268).
`CC(=O)O[C@H]1C=CC=C2C[C@]34SS[C@](CO)(C(=O)N3C21)N(C)C4=O` (stereo partly shown) [Compound 6, acetylgliotoxin]: the IC50 in data set [1] is over 500 µM; in data set [2] (Homo sapiens, HepG2), 0.49 ± 0.07 µM; in data set [3] (Homo sapiens, MCF7), 0.22 ± 0.04 µM; in data set [4] (Homo sapiens, NCI-H460), 0.32 ± 0.02 µM; in data set [5] it was 0.08 to 1.52 µM; in data set [6] (Homo sapiens, SF-268), 0.25 ± 0.03 µM.
For the compound `CS[C@@]1(CO)NC(=O)[C@@](Cc2ccccc2)(SC)NC1=O` [Compound 7, bis-N-norgliovictin], the IC50 was over 500 µM in data set [1]; over 100 µM in data set [2] (Homo sapiens, HepG2); over 100 µM in data set [3] (Homo sapiens, MCF7); over 100 µM in data set [4] (Homo sapiens, NCI-H460); over 100 µM in data set [6] (Homo sapiens, SF-268).
On to `CSC1(Cc2ccccc2)NC(=O)C(CO)NC1=O` (stereo not shown) [Compound 8, 3-benzyl-6-(hydroxymethyl)-3-(methylthio)piperazine-2,5-dione], for which the IC50 in data set [1] was over 500 µM; in data set [2] (Homo sapiens, HepG2), over 100 µM; in data set [3] (Homo sapiens, MCF7), over 100 µM; in data set [4] (Homo sapiens, NCI-H460), over 100 µM; in data set [6] (Homo sapiens, SF-268), over 100 µM.
Regarding `CS[C@]1(CO)C(=O)N2[C@H]3C(=CC=C[C@@H]3OC(C)=O)C[C@@]2(SC)C(=O)N1C` [Compound 10, 6-acetylbis(methylthio)gliotoxin], the IC50 is over 500 µM in data set [1]; 7 ± 0.17 µM in data set [2] (Homo sapiens, HepG2); 3.1 ± 0.1 µM in data set [3] (Homo sapiens, MCF7); 5.4 ± 0.6 µM in data set [4] (Homo sapiens, NCI-H460); 34 ± 3.6 µM in data set [6] (Homo sapiens, SF-268). For the same compound, the “cytotoxic / inhibitory activity” value in data set [5] was “significant inhibitory activities”.
As to `C=c1c(=O)n2c(cc3ccccc32)c(=O)n1C` [Compound 11, 1,2,3,4-tetrahydro-2-methyl-3-methylene-1,4-dioxopyrazino[1,2-a]indole], the IC50 is over 500 µM in data set [1]; 2.29 ± 0.3 µM in data set [2] (Homo sapiens, HepG2); 4.67 ± 1.4 µM in data set [3] (Homo sapiens, MCF7); 12.3 ± 0.24 µM in data set [4] (Homo sapiens, NCI-H460); 3.3 ± 0.28 µM in data set [6] (Homo sapiens, SF-268). The “cytotoxic / inhibitory activity” value in data set [5] is “significant inhibitory activities”.
For the compound `N.N.[Cl][Pt][Cl]` [cisplatin, reference compound], the IC50 in data set [2] is 1.39 ± 0.18 µM; in data set [3], 3.09 ± 0.27 µM; in data set [4] it was 2.43 ± 0.15 µM; in data set [6], 2.37 ± 0.35 µM.
Consider “bisdethiobis(methylthio)gliotoxin [Compound 9]”, for which the IC50 was over 500 µM in data set [1]; over 100 µM in data set [2]; over 100 µM in data set [3]; over 100 µM in data set [4]; over 100 µM in data set [6].

The values are drawn from PMC5039535, “Dichotocejpins A–C: New Diketopiperazines from a Deep-Sea-Derived Fungus Dichotomomyces cejpii FS110” (Marine Drugs, 2016).
